# Reference: patent US7867747B2, “Fibrinolytic metalloprotease and composition comprising the same” (priority 2006, dated 2011)
# Counter-ions that a name gives are not always drawn. Like-named read-outs stand apart in the source and are kept apart here.
# B1: recombinant protease: Zinc-dependent fibrinolytic metalloprotease, 359 amino acids (SEQ ID NO:2), about 39 kDa, from deep-sea sediment metagenome, expressed in E. coli, purified by chitin affinity … (protein)
# chain: MEPEPIKTCTVLENPGYQPIHAPTDVSPQPVLAAMEAVPVPTPPPTVDAVMLFRKKWRDGKILRVHFMDGDPDVHRKVEEVAHTWSRHANVRFKFVDDPAADIRISFTQPGSWSYLGTDALRIARSQSTMNFGWLTPRSPDSEYNRVVIHEFGHALGLVHEHQNPDNGIPWNKPAVYEYYSGPPNNWSKEQVDTNLFQQYSEDQVRFTGFDRESIMLYPIPNEFTVGDFEVGWNRDLSADDKEFIGRMYPKPANELIVDDPPRASEISRYGEIDTYTFLVTQKGSYRIETDGRTDLVMLLYGPEDDTKLIAADDDSGRRLNPRITEELDWGKYTVRLQHFSQRQTGKYAVGVYRDDAAE
# modifications: Protein sequence of coding metalloprotease ES6349
# What was measured:
# Assay type in all cases: biochemical
# [1] = test system: zinc-dependent metalloprotease (purified recombinant enzyme)
# azocasein [2] = assay: Protease activity assay, release of acid-soluble material from azocasein; conditions: 50 mM Tris-HCl pH 7.0, 50° C., 1 h, by purification step
# Method: Protease activity was determined by measuring the release of acid-soluble material from azocasein (Sigma, USA) (Windle, H. J. P. et al., Infect. Immun. Vol. 65, pp 3132-3137, 1997).
# (§1) Specifically, all assays were conducted in a 50 mM Tris-HCl (pH 7.0) buffer. Enzyme samples (100 μl) obtained in Example 2 were added to 100 μl of 1% (w/v) azocasein and the reaction mixture was incubated at 50° C. for 1 h and terminated by the addition of 400 μl of 10% (w/v) trichloroacetic acid. The precipitated protein was removed by centrifugation (12,000×g, 5 min), and the resulting supernatant was transferred to a clean tube containing 700 μl of 525 mM NaOH. Absorbance was measured at 442 nm.
# One unit of protease activity was defined as an amount required for producing enough acid-soluble material from azocasein to yield absorbance of 0.1 at 442 nm, following 1 h incubation at 50° C.
# azocasein [3] = assay: Effects of temperature and pH on enzyme activity (azocasein assay)
# Method: as §1
# The optimal temperature for protease activity was examined in the buffer used in the standard assay at various temperatures. The values on the ordinate are shown as percentages of the enzyme activity (100%) observed at 50° C.
# The optimal pH for the protease activity was determined in various buffers at 50° C. The buffers used were sodium acetate buffers (open rectangles, pH 5.0-6.0), Tris-HCl buffers (open triangles, pH 6.0-8.0) and glycine-NaOH buffers (open circles, pH 8.0-9.0).
# The values on the ordinate are shown as percentages of the enzyme activity (100%) observed at pH 7.0. […] The optimal pH for the activity of protease was 7.0 (FIG. 3B).
# [4] = test system: fibrin (human fibrinogen clotted with human thrombin); assay: Fibrinolytic assay, hydrolysis of fibrin clots analysed by SDS-PAGE; conditions: 37° C.
# Method: Fibrinolytic activity was determined using the method described by Datta et al. (Datta, et al., Arch. Biochem. Biophys. Vol. 317, pp 365-373, 1995) with minor modifications.
# Specifically, 10 μl of 1% human fibrinogen (Sigma, USA) solution (prepared in a 20 mM Tris/HCl (pH 7.4) buffer) was added to human thrombin (0.05 NIH unit, Sigma, USA), and then allowed to stand for 1 h at room temperature. […] The hydrolysis of fibrin by the enzyme was analyzed by SDS-PAGE (FIG. 4). 5 μl each of reaction solutions was obtained at various time intervals and analyzed using an 11% SDS-PAGE gel.
# [5] = 1 mM, pre-incubation 25° C. 30 min, 50 mM Tris-HCl pH 7.0, no addition = 100
molecule,measurement,setting,value
"CCCCCCCCCCCCOS(=O)(=O)[O-].[Na+] [SDS, sodium dodecyl sulfate]",Relative activity,"[1]; 17 mM, pre-incubation 25° C. 30 min, 50 mM Tris-HCl pH 7.0, no addition = 100",9%
same,effect on enzyme activity (in words),[1]; 0.05% SDS,easily denatured
"O=C(O)CN(CCOCCOCCN(CC(=O)O)CC(=O)O)CC(=O)O [EGTA, ethylene glycol-bis(2-aminoethylether)-N,N,N′,N′-tetraacetic acid]",effect on enzyme activity (in words),"[1]; 1 mM, as shown in Table 2",inhibited
same,Relative activity,[1]; [5],21%
O=S(=O)([O-])[O-].[Ni+2] [NiSO4],effect on enzyme activity (in words),"[1]; 1 mM, as shown in Table 2",enhanced
same,Relative activity,[1]; [5],140%
[Cl-].[Cl-].[Co+2] [CoCl2],effect on enzyme activity (in words),[1],enhanced
same,Relative activity,[1]; 1 mM,280%
"O=S(=O)(F)Cc1ccccc1 [PMSF, phenylmethylsulfonyl fluoride]",effect on enzyme activity (in words),"[1]; 1 mM, as shown in Table 2",no influence
same,Relative activity,[1]; [5],104%
"c1cnc2c(c1)ccc1cccnc12 [1,10-phenanthroline]",effect on enzyme activity (in words),"[1]; 1 mM, as shown in Table 2",inhibited
same,Relative activity,[1]; [5],55%
[Cl-].[Cl-].[Zn+2] [ZnCl2],effect on enzyme activity (in words),"[1]; 1 mM, as shown in Table 2",inhibited
same,Relative activity,[1]; [5],80%
[Ca+2].[Cl-].[Cl-] [CaCl2],effect on enzyme activity (in words),"[1]; 1 mM, as shown in Table 2",enhanced
same,Relative activity,[1]; [5],200%
"N=C(N)N [Guanidine hydrochloride, guanidine hydrochloride]",effect on enzyme activity (in words),[1]; 0.5 M,strongly inhibited
same,Relative activity,"[1]; 500 mM, pre-incubation 25° C. 30 min, 50 mM Tris-HCl pH 7.0, no addition = 100",22%
[Cl-].[Cl-].[Mg+2] [MgCl2],effect on enzyme activity (in words),"[1]; 1 mM, as shown in Table 2",inhibited
same,Relative activity,[1]; [5],20%
O=S(=O)([O-])[O-].[Cu+2] [CuSO4],Relative activity,[1]; [5],100%
O=S(=O)([O-])[O-].[Fe+2] [FeSO4],Relative activity,[1]; [5],100%
"O=C(O)CN(CCN(CC(=O)O)CC(=O)O)CC(=O)O [EDTA, ethylenediaminetetraacetic acid]",effect on enzyme activity (in words),[1],inhibited
same,Relative activity,[1]; pH 7,27%
B1,Specific activity,azocasein [2],"76,000 U/mg"
same,Specific activity,azocasein [2]; listed as Affinity chromatography,"3,400 U/mg"
same,Enzyme activity compared with the enzyme activity (100%) at 50° C.,azocasein [3]; at 40° C.,26%
same,Enzyme activity compared with the enzyme activity (100%) at 50° C.,azocasein [3]; at 60° C.,18%
same,optimal temperature for the activity of the protease,"azocasein [3]; standard assay buffer, 1 h",50 °C
same,optimal pH for the activity of protease,azocasein [3]; various buffers at 50° C.,7.0
same,hydrolysis of the β-chain of fibrin,[4]; after 30 min,partially hydrolyzed
same,hydrolysis of the α-chain of fibrin,[4]; after 1 h,completely hydrolyzed
same,hydrolysis of the γ-γ-chain of fibrin,[4]; after 1 h,completely hydrolyzed
same,hydrolysis of the β-chain of fibrin,[4]; after 2 h,not completely hydrolyzed
same,hydrolysis of the β-chain of fibrin,[4]; after 24 h (data not shown),not completely hydrolyzed
